Patent publication US8192962B2, “Processes for detecting toxic substances” (Daikin Industries, Ltd., priority 2001, dated 2012)

Test system: Metabolism protein genes
Test: DNA chip mRNA expression in yeast, metabolism protein genes (Table 7)
Type: cell-based, Saccharomyces cerevisiae S288C
How it was run: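 Whole-genome yeast DNA chip hybridization (65° C., >12 h) of Cy-labeled cDNA from S288C cells exposed 2 h at 25° C. to a sub-lethal toxicant dose in YPD; value is intensity relative to chemical-free control.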

S=C([S-])NCCNC(=S)[S-].[Zn+2] [(11), zinc N,N′-ethylenebis(dithiocarbamate)]
The level of expressed mRNA in the presence of chemical substance/The level of expressed mRNA in the absence of chemical substance (yeast gene YJR155W): 15.4
The level of expressed mRNA in the presence of chemical substance/The level of expressed mRNA in the absence of chemical substance (yeast gene YKL035W): 2.1
level of expressed mRNA in the presence/in the absence of chemical substance (yeast gene YKL060C): 2.1
The level of expressed mRNA in the presence of chemical substance/The level of expressed mRNA in the absence of chemical substance (yeast gene YKL091C): 1.7
The level of expressed mRNA in the presence of chemical substance/The level of expressed mRNA in the absence of chemical substance (yeast gene YKL104C): 2.2
level of expressed mRNA in the presence/in the absence of chemical substance (yeast gene YKL148C): 1.5
The level of expressed mRNA in the presence of chemical substance/The level of expressed mRNA in the absence of chemical substance (yeast gene YKL152C): 1.7
level of expressed mRNA in the presence/in the absence of chemical substance (yeast gene YKL157W): 1.5
The level of expressed mRNA in the presence of chemical substance/The level of expressed mRNA in the absence of chemical substance (yeast gene YKL213C): 1.3
The level of expressed mRNA in the presence of chemical substance/The level of expressed mRNA in the absence of chemical substance (yeast gene YKL215C): 0.5
The level of expressed mRNA in the presence of chemical substance/The level of expressed mRNA in the absence of chemical substance (yeast gene YKR039W): 1.9
The level of expressed mRNA in the presence of chemical substance/The level of expressed mRNA in the absence of chemical substance (yeast gene YLL058W): 2.0
level of expressed mRNA in the presence/in the absence of chemical substance (yeast gene YLR006C): 1.5
level of expressed mRNA in the presence/in the absence of chemical substance (yeast gene YLR044C): 1.1
level of expressed mRNA in the presence/in the absence of chemical substance (yeast gene YLR056W): 0.8
level of expressed mRNA in the presence/in the absence of chemical substance (yeast gene YLR058C): 2.6
level of expressed mRNA in the presence/in the absence of chemical substance (yeast gene YLR081W): 2.6
level of expressed mRNA in the presence/in the absence of chemical substance (yeast gene YLR089C): 1.7
The level of expressed mRNA in the presence of chemical substance/The level of expressed mRNA in the absence of chemical substance (yeast gene YLR180W): 1.7
The level of expressed mRNA in the presence of chemical substance/The level of expressed mRNA in the absence of chemical substance (yeast gene YLR273C): 1.4
level of expressed mRNA in the presence/in the absence of chemical substance (yeast gene YLR284C): 1.5
The level of expressed mRNA in the presence of chemical substance/The level of expressed mRNA in the absence of chemical substance (yeast gene YLR299W): 1.7
The level of expressed mRNA in the presence of chemical substance/The level of expressed mRNA in the absence of chemical substance (yeast gene YLR300W): 1.0
level of expressed mRNA in the presence/in the absence of chemical substance (yeast gene YLR304C): 1.6
The level of expressed mRNA in the presence of chemical substance/The level of expressed mRNA in the absence of chemical substance (yeast gene YLR307W): 0.8
The level of expressed mRNA in the presence of chemical substance/The level of expressed mRNA in the absence of chemical substance (yeast gene YLR348C): 1.3
level of expressed mRNA in the presence/in the absence of chemical substance (yeast gene YLR354C): 1.7
level of expressed mRNA in the presence/in the absence of chemical substance (yeast gene YLR372W): 0.9
level of expressed mRNA in the presence/in the absence of chemical substance (yeast gene YML022W): 1.2
The level of expressed mRNA in the presence of chemical substance/The level of expressed mRNA in the absence of chemical substance (yeast gene YML054C): 1.4
The level of expressed mRNA in the presence of chemical substance/The level of expressed mRNA in the absence of chemical substance (yeast gene YML058W): 3.3
The level of expressed mRNA in the presence of chemical substance/The level of expressed mRNA in the absence of chemical substance (yeast gene YML070W): 1.5
The level of expressed mRNA in the presence of chemical substance/The level of expressed mRNA in the absence of chemical substance (yeast gene YML100W): 3.2
The level of expressed mRNA in the presence of chemical substance/The level of expressed mRNA in the absence of chemical substance (yeast gene YMR008C): 1.3
level of expressed mRNA in the presence/in the absence of chemical substance (yeast gene YMR011W): 1.5
level of expressed mRNA in the presence/in the absence of chemical substance (yeast gene YMR015C): 1.0
The level of expressed mRNA in the presence of chemical substance/The level of expressed mRNA in the absence of chemical substance (yeast gene YMR020W): 1.5
level of expressed mRNA in the presence/in the absence of chemical substance (yeast gene YMR083W): 1.6
The level of expressed mRNA in the presence of chemical substance/The level of expressed mRNA in the absence of chemical substance (yeast gene YMR105C): 3.0
The level of expressed mRNA in the presence of chemical substance/The level of expressed mRNA in the absence of chemical substance (yeast gene YMR189W): 8.2
level of expressed mRNA in the presence/in the absence of chemical substance (yeast gene YMR205C): 1.0
level of expressed mRNA in the presence/in the absence of chemical substance (yeast gene YMR261C): 0.8
The level of expressed mRNA in the presence of chemical substance/The level of expressed mRNA in the absence of chemical substance (yeast gene YMR271C): 1.7
The level of expressed mRNA in the presence of chemical substance/The level of expressed mRNA in the absence of chemical substance (yeast gene YMR296C): 0.8
level of expressed mRNA in the presence/in the absence of chemical substance (yeast gene YMR323W): 2.5
The level of expressed mRNA in the presence of chemical substance/The level of expressed mRNA in the absence of chemical substance (yeast gene YNL012W): 1.6
level of expressed mRNA in the presence/in the absence of chemical substance (yeast gene YNL025C): 1.1
The level of expressed mRNA in the presence of chemical substance/The level of expressed mRNA in the absence of chemical substance (yeast gene YNL045W): 2.1
The level of expressed mRNA in the presence of chemical substance/The level of expressed mRNA in the absence of chemical substance (yeast gene YNL104C): 2.1
The level of expressed mRNA in the presence of chemical substance/The level of expressed mRNA in the absence of chemical substance (yeast gene YNL106C): 0.9
The level of expressed mRNA in the presence of chemical substance/The level of expressed mRNA in the absence of chemical substance (yeast gene YNL169C): 0.8
level of expressed mRNA in the presence/in the absence of chemical substance (yeast gene YNL192W): 1.1
The level of expressed mRNA in the presence of chemical substance/The level of expressed mRNA in the absence of chemical substance (yeast gene YNL231C): 1.3
The level of expressed mRNA in the presence of chemical substance/The level of expressed mRNA in the absence of chemical substance (yeast gene YNL322C): 0.6
The level of expressed mRNA in the presence of chemical substance/The level of expressed mRNA in the absence of chemical substance (yeast gene YNL331C): 21.8
The level of expressed mRNA in the presence of chemical substance/The level of expressed mRNA in the absence of chemical substance (yeast gene YNL332W): 2.6
The level of expressed mRNA in the presence of chemical substance/The level of expressed mRNA in the absence of chemical substance (yeast gene YNR019W): 0.7
The level of expressed mRNA in the presence of chemical substance/The level of expressed mRNA in the absence of chemical substance (yeast gene YNR033W): 0.4
The level of expressed mRNA in the presence of chemical substance/The level of expressed mRNA in the absence of chemical substance (yeast gene YNR059W): 1.0
The level of expressed mRNA in the presence of chemical substance/The level of expressed mRNA in the absence of chemical substance (yeast gene YOL058W): 2.3
level of expressed mRNA in the presence/in the absence of chemical substance (yeast gene YOL086C): 2.6
level of expressed mRNA in the presence/in the absence of chemical substance (yeast gene YOL108C): 1.1
level of expressed mRNA in the presence/in the absence of chemical substance (yeast gene YOL116W): 1.0
The level of expressed mRNA in the presence of chemical substance/The level of expressed mRNA in the absence of chemical substance (yeast gene YOL126C): 1.8
The level of expressed mRNA in the presence of chemical substance/The level of expressed mRNA in the absence of chemical substance (yeast gene YOL153C): 2.4
level of expressed mRNA in the presence/in the absence of chemical substance (yeast gene YOL156W): 1.1
The level of expressed mRNA in the presence of chemical substance/The level of expressed mRNA in the absence of chemical substance (yeast gene YOL165C): 17.6
level of expressed mRNA in the presence/in the absence of chemical substance (yeast gene YOR002W): 1.2
level of expressed mRNA in the presence/in the absence of chemical substance (yeast gene YOR085W): 1.1
The level of expressed mRNA in the presence of chemical substance/The level of expressed mRNA in the absence of chemical substance (yeast gene YOR099W): 1.2
level of expressed mRNA in the presence/in the absence of chemical substance (yeast gene YOR103C): 1.0
level of expressed mRNA in the presence/in the absence of chemical substance (yeast gene YOR108W): 1.4
level of expressed mRNA in the presence/in the absence of chemical substance (yeast gene YOR128C): 0.8
The level of expressed mRNA in the presence of chemical substance/The level of expressed mRNA in the absence of chemical substance (yeast gene YOR130C): 0.6
level of expressed mRNA in the presence/in the absence of chemical substance (yeast gene YOR142W): 1.5
level of expressed mRNA in the presence/in the absence of chemical substance (yeast gene YOR176W): 1.4
level of expressed mRNA in the presence/in the absence of chemical substance (yeast gene YOR178C): 4.1
level of expressed mRNA in the presence/in the absence of chemical substance (yeast gene YOR251C): 1.0
The level of expressed mRNA in the presence of chemical substance/The level of expressed mRNA in the absence of chemical substance (yeast gene YOR336W): 1.4
The level of expressed mRNA in the presence of chemical substance/The level of expressed mRNA in the absence of chemical substance (yeast gene YOR347C): 1.4
level of expressed mRNA in the presence/in the absence of chemical substance (yeast gene YOR348C): 1.1
The level of expressed mRNA in the presence of chemical substance/The level of expressed mRNA in the absence of chemical substance (yeast gene YPL017C): 0.4
level of expressed mRNA in the presence/in the absence of chemical substance (yeast gene YPL028W): 1.2
level of expressed mRNA in the presence/in the absence of chemical substance (yeast gene YPL057C): 1.6
level of expressed mRNA in the presence/in the absence of chemical substance (yeast gene YPL135W): 1.3
level of expressed mRNA in the presence/in the absence of chemical substance (yeast gene YPL148C): 3.5
The level of expressed mRNA in the presence of chemical substance/The level of expressed mRNA in the absence of chemical substance (yeast gene YPR026W): 1.6
level of expressed mRNA in the presence/in the absence of chemical substance (yeast gene YPR113W): 2.0
The level of expressed mRNA in the presence of chemical substance/The level of expressed mRNA in the absence of chemical substance (yeast gene YPR160W): 4.4
level of expressed mRNA in the presence/in the absence of chemical substance (yeast gene YPR165W): 1.0
The level of expressed mRNA in the presence of chemical substance/The level of expressed mRNA in the absence of chemical substance (yeast gene YPR167C): 1.9
level of expressed mRNA in the presence/in the absence of chemical substance (yeast gene YPR183W): 2.5
The level of expressed mRNA in the presence of chemical substance/The level of expressed mRNA in the absence of chemical substance (yeast gene YPR184W): 3.6
